{"source": "patent US20240166770A1", "about": "“COMPOSITIONS AND METHODS FOR INHIBITION OF CELL-PENETRATING ANTIBODIES” (Yale University, priority 2019, published 2024)", "origin": "cited, not measured here", "key": {"ENT2": {"molecular_target": "T1, ENT2 (Homo sapiens, UniProt Q14542)", "T1 sequence (Q14542 1-456)": "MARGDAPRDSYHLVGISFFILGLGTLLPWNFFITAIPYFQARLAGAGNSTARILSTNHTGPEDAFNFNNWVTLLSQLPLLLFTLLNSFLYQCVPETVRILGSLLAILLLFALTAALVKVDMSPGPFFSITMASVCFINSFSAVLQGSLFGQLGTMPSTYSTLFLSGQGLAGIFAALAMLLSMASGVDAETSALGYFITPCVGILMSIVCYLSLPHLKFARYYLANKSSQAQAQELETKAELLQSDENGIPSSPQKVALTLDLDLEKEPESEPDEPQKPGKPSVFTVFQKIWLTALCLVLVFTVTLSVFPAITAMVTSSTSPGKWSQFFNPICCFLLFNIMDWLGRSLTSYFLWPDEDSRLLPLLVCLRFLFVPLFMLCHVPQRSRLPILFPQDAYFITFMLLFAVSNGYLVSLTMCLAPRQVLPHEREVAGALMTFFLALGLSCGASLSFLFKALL", "conditions": "cited from earlier work"}, "hENT4": {"molecular_target": "T2, hENT4 (Homo sapiens, UniProt Q7RTT9)", "T2 sequence (Q7RTT9 1-530)": "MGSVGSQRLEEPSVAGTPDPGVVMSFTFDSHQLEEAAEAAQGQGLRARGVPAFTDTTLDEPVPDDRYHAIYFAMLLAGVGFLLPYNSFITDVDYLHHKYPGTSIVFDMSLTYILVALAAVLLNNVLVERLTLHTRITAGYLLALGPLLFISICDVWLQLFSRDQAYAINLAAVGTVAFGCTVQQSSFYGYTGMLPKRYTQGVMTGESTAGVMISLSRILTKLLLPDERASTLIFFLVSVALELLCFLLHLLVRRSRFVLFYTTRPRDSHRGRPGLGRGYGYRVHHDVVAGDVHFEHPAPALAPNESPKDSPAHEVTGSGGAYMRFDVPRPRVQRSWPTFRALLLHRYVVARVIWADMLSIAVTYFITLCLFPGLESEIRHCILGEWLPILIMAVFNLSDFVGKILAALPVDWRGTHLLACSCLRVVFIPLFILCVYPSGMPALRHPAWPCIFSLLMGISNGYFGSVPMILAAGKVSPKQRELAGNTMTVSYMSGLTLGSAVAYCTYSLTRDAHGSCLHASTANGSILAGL", "conditions": "cited from earlier work"}, "[1]": {"conditions": "Table 1, different ring systems at the 4- and 8-positions"}, "[2]": {"conditions": "Table 3, free hydrogen on the nitrogen of 4- and 8-position substituents"}, "[3]": {"conditions": "Table 4, modification at hydroxyl groups of dipyridamole"}, "[4]": {"conditions": "Table 2, opening chain analogues"}}, "note": "Read-outs that look alike come from different tables or passages of the source."}
{"smiles": "OCCN(CCO)c1nc(N2CCCCCC2)c2nc(N(CCO)CCO)nc(N3CCCCCC3)c2n1", "note": "[compound 11]", "values": [{"measurement": "IC50", "setting": "ENT2; [1]", "value": 117, "unit": "nM"}, {"measurement": "IC50", "setting": "hENT4; [1]", "value": 379, "unit": "nM"}]}
{"smiles": "CC(C)CCNc1nc(N(CCO)CCO)nc2c(NCCC(C)C)nc(N(CCO)CCO)nc12", "note": "[compound 56]", "values": [{"measurement": "IC50", "setting": "ENT2; [2]", "value": 1950, "unit": "nM"}, {"measurement": "IC50", "setting": "hENT4; [2]", "value": 495, "unit": "nM"}]}
{"smiles": "CC(C)(C)Nc1nc(N(CCO)CCO)nc2c(NC(C)(C)C)nc(N(CCO)CCO)nc12", "note": "[compound 52]", "values": [{"measurement": "IC50", "setting": "hENT4; [2]", "value": 767, "unit": "nM"}]}
{"smiles": "CCCOCCN(CCOCCC)c1nc(N2CCCCC2)c2nc(N(CCOCCC)CCOCCC)nc(N3CCCCC3)c2n1", "note": "[compound 78]", "values": [{"measurement": "IC50", "setting": "hENT4; [3]", "value": 140000, "unit": "nM"}]}
{"smiles": "OCCN(CCO)c1nc(NC2CC2)c2nc(N(CCO)CCO)nc(NC3CC3)c2n1", "note": "[compound 60]", "values": [{"measurement": "IC50", "setting": "ENT2; [2]", "value": 2710, "unit": "nM"}, {"measurement": "IC50", "setting": "hENT4; [2]", "value": 37600, "unit": "nM"}]}
{"smiles": "OCCN(CCO)c1nc(NC2CCCCC2)c2nc(N(CCO)CCO)nc(NC3CCCCC3)c2n1", "note": "[compound 66]", "values": [{"measurement": "IC50", "setting": "hENT4; [2]", "value": 124000, "unit": "nM"}]}
{"smiles": "OCCN(CCO)c1nc(N2CCOCC2)c2nc(N(CCO)CCO)nc(N3CCOCC3)c2n1", "note": "[compound 4]", "values": [{"measurement": "IC50", "setting": "ENT2; [1]", "value": 4120, "unit": "nM"}]}
{"smiles": "OCCOc1nc(N2CCCCC2)c2nc(OCCO)nc(N3CCCCC3)c2n1", "note": "[compound 72]", "values": [{"measurement": "IC50", "setting": "ENT2; [3]", "value": 1780, "unit": "nM"}]}
{"smiles": "OCCN(CCO)c1nc(NC2CCCC2)c2nc(N(CCO)CCO)nc(NC3CCCC3)c2n1", "note": "[compound 64]", "values": [{"measurement": "IC50", "setting": "ENT2; [2]", "value": 1320, "unit": "nM"}, {"measurement": "IC50", "setting": "hENT4; [2]", "value": 12200, "unit": "nM"}]}
{"smiles": "OCCN(CCO)c1nc(N2CCCCCCC2)c2nc(N(CCO)CCO)nc(N3CCCCCCC3)c2n1", "note": "[compound 13]", "values": [{"measurement": "IC50", "setting": "ENT2; [1]", "value": 90.8, "unit": "nM"}, {"measurement": "IC50", "setting": "hENT4; [1]", "value": 404, "unit": "nM"}]}
{"smiles": "CC(C)Nc1nc(N(CCO)CCO)nc2c(NC(C)C)nc(N(CCO)CCO)nc12", "note": "[compound 46]", "values": [{"measurement": "IC50", "setting": "ENT2; [2]", "value": 3020, "unit": "nM"}, {"measurement": "IC50", "setting": "hENT4; [2]", "value": 26000, "unit": "nM"}]}
{"smiles": "OCCN(CCO)c1nc(N(Cc2ccccc2)Cc2ccccc2)c2nc(N(CCO)CCO)nc(N(Cc3ccccc3)Cc3ccccc3)c2n1", "note": "[compound 37]", "values": [{"measurement": "IC50", "setting": "hENT4; [4]", "value": 68400, "unit": "nM"}]}
{"smiles": "OCCN(CCO)c1nc(N2CCCC2)c2nc(N(CCO)CCO)nc(N3CCCC3)c2n1", "note": "[compound 2]", "values": [{"measurement": "IC50", "setting": "ENT2; [1]", "value": 556, "unit": "nM"}]}
{"smiles": "CCCCCNc1nc(N(CCO)CCO)nc2c(NCCCCC)nc(N(CCO)CCO)nc12", "note": "[compound 54]", "values": [{"measurement": "IC50", "setting": "ENT2; [2]", "value": 4790, "unit": "nM"}, {"measurement": "IC50", "setting": "hENT4; [2]", "value": 603, "unit": "nM"}]}
{"smiles": "CCCCNc1nc(N(CCO)CCO)nc2c(NCCCC)nc(N(CCO)CCO)nc12", "note": "[compound 48]", "values": [{"measurement": "IC50", "setting": "ENT2; [2]", "value": 2850, "unit": "nM"}, {"measurement": "IC50", "setting": "hENT4; [2]", "value": 1880, "unit": "nM"}]}
{"smiles": "CC(=O)OCCN(CCOC(C)=O)c1nc(N2CCCCC2)c2nc(N(CCOC(C)=O)CCOC(C)=O)nc(N3CCCCC3)c2n1", "note": "[compound 75]", "values": [{"measurement": "IC50", "setting": "ENT2; [3]", "value": 708, "unit": "nM"}, {"measurement": "IC50", "setting": "hENT4; [3]", "value": 14100, "unit": "nM"}]}
{"smiles": "OCCNc1nc(N2CCCCCCC2)c2nc(NCCO)nc(N3CCCCCCC3)c2n1", "note": "[compound 14]", "values": [{"measurement": "IC50", "setting": "ENT2; [1]", "value": 5200, "unit": "nM"}, {"measurement": "IC50", "setting": "hENT4; [1]", "value": 181, "unit": "nM"}]}
{"smiles": "CCCCN(CCCC)c1nc(N(CCO)CCO)nc2c(N(CCCC)CCCC)nc(N(CCO)CCO)nc12", "note": "[compound 27]", "values": [{"measurement": "IC50", "setting": "ENT2; [4]", "value": 3310, "unit": "nM"}, {"measurement": "IC50", "setting": "hENT4; [4]", "value": 2960, "unit": "nM"}]}
{"smiles": "OCCN(CCO)c1nc(N2CCCCCCCC2)c2nc(N(CCO)CCO)nc(N3CCCCCCCC3)c2n1", "note": "[compound 15]", "values": [{"measurement": "IC50", "setting": "ENT2; [1]", "value": 2350, "unit": "nM"}, {"measurement": "IC50", "setting": "hENT4; [1]", "value": 1320, "unit": "nM"}]}
{"smiles": "OCCNc1nc(N2CCCCC2)c2nc(NCCO)nc(N3CCCCC3)c2n1", "note": "[compound 1]", "values": [{"measurement": "IC50", "setting": "ENT2; [1]", "value": 7440, "unit": "nM"}, {"measurement": "IC50", "setting": "hENT4; [1]", "value": 2200, "unit": "nM"}]}
{"smiles": "OCCN(CCO)c1nc(NC2CCC2)c2nc(N(CCO)CCO)nc(NC3CCC3)c2n1", "note": "[compound 62]", "values": [{"measurement": "IC50", "setting": "ENT2; [2]", "value": 727, "unit": "nM"}, {"measurement": "IC50", "setting": "hENT4; [2]", "value": 15700, "unit": "nM"}]}
{"smiles": "COCCN(CCOC)c1nc(N2CCCCC2)c2nc(N(CCOC)CCOC)nc(N3CCCCC3)c2n1", "note": "[compound 76]", "values": [{"measurement": "IC50", "setting": "ENT2; [3]", "value": 1470, "unit": "nM"}, {"measurement": "IC50", "setting": "hENT4; [3]", "value": 1820, "unit": "nM"}]}
{"smiles": "CCCCCN(CCCCC)c1nc(N(CCO)CCO)nc2c(N(CCCCC)CCCCC)nc(N(CCO)CCO)nc12", "note": "[compound 31]", "values": [{"measurement": "IC50", "setting": "hENT4; [4]", "value": 45700, "unit": "nM"}]}
{"smiles": "OCCN(CCO)c1nc(N2C3CCCC2CC3)c2nc(N(CCO)CCO)nc(N3C4CCCC3CC4)c2n1", "note": "[compound 17]", "values": [{"measurement": "IC50", "setting": "ENT2; [1]", "value": 323, "unit": "nM"}]}
{"smiles": "OCCNc1nc(NCc2ccccc2)c2nc(NCCO)nc(NCc3ccccc3)c2n1", "note": "[compound 71]", "values": [{"measurement": "IC50", "setting": "hENT4; [2]", "value": 1760, "unit": "nM"}]}
{"smiles": "CC(C)CCN(CCC(C)C)c1nc(N(CCO)CCO)nc2c(N(CCC(C)C)CCC(C)C)nc(N(CCO)CCO)nc12", "note": "[compound 33]", "values": [{"measurement": "IC50", "setting": "hENT4; [4]", "value": 44200, "unit": "nM"}]}
{"smiles": "CCCNc1nc(N(CCO)CCO)nc2c(NCCC)nc(N(CCO)CCO)nc12", "note": "[compound 44]", "values": [{"measurement": "IC50", "setting": "ENT2; [2]", "value": 3500, "unit": "nM"}, {"measurement": "IC50", "setting": "hENT4; [2]", "value": 16400, "unit": "nM"}]}
{"smiles": "CCN(CC)c1nc(N(CCO)CCO)nc2c(N(CC)CC)nc(N(CCO)CCO)nc12", "note": "[compound 23]", "values": [{"measurement": "IC50", "setting": "ENT2; [4]", "value": 2930, "unit": "nM"}, {"measurement": "IC50", "setting": "hENT4; [4]", "value": 4120, "unit": "nM"}]}
